# In US8987250B2 (Gilead Sciences, Inc., priority 2012, dated 2015):
# Tested on: HIV-IIIb
# Assay: Test A: Antiviral Assay in MT4 Cells
# Type: cell-based
# Conditions: Human immunodeficiency virus 1, IIIB, MT4, 120 h, Table 2; MT-4 cells infected with HIV-IIIb, 5 days of incubation, CellTiter-Glo; read-out: EC50
# Summary of the method: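 Read-out: CellTiter-Glo chemiluminescence after 5-day incubation at 37 °C. Compounds tested as 3-fold serial dilutions (10 concentrations, quadruplicate) in RPMI 1640 with 10% FBS, on MT-4 cells pre-infected at 37 °C with HIV-IIIb at 0.004 m.o.i.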
row,Compound,EC50 [nM]
1,Cc1cc2nc(-c3ccnc(-c4ccc5nn(C)cc5n4)c3)sc2c(-c2ccc(Cl)cc2)c1[C@H](OC(C)(C)C)C(=O)O [Compound 370],4
2,CCCn1ncc2cc(-c3cc(-c4nc5cc(C)c([C@H](OC(C)(C)C)C(=O)O)c(-c6ccc(Cl)cc6)c5s4)ccn3)ccc21 [Compound 373],37
3,Cc1cc2nc(-c3cc(-c4ccc5c(cnn5C)c4)ccn3)sc2c(-c2ccc(Cl)cc2)c1[C@H](OC(C)(C)C)C(=O)O [Compound 375],228
4,Cc1cc2nc(-c3ccnc(-c4cnn(C)c4C)c3)sc2c(-c2ccc(Cl)cc2)c1[C@H](OC(C)(C)C)C(=O)O [Compound 376],19
5,Cc1cc2nc(-c3cnc4c(c3)c(C3=CCN(C)CC3)cn4C)sc2c(-c2ccc(Cl)cc2)c1[C@H](OC(C)(C)C)C(=O)O [Compound 378],51
6,Cc1cc2cc(-c3nc4cc(C)c([C@H](OC(C)(C)C)C(=O)O)c(-c5ccc(Cl)cc5)c4s3)cnc2[nH]1 [Compound 379],15
7,Cc1cc2cc(-c3cc(-c4nc5cc(C)c([C@H](OC(C)(C)C)C(=O)O)c(-c6ccc(Cl)cc6)c5s4)ccn3)cnc2[nH]1 [Compound 380],25
8,Cc1cc2nc(-c3cn(C)c4ncc(F)cc34)sc2c(-c2ccc(Cl)cc2)c1[C@H](OC(C)(C)C)C(=O)O [Compound 381],47
9,Cc1cc2nc(-c3ccnc(-c4ccc5c(c4)c(N)nn5C)c3)sc2c(-c2ccc(Cl)cc2)c1[C@H](OC(C)(C)C)C(=O)O [Compound 383],18
10,Cc1cc2nc(-c3cccc4c3OCC(=O)N4)sc2c(-c2ccc(Cl)cc2)c1[C@H](OC(C)(C)C)C(=O)O [Compound 388],28
11,Cc1cc2nc(-c3ccnc(-c4ccc5c(c4)OCC(=O)N5C)c3)sc2c(-c2ccc(Cl)cc2)c1[C@H](OC(C)(C)C)C(=O)O [Compound 389],7
12,Cc1cc2nc(-c3ccnc(-c4cccc5c4OCC(=O)N5C)c3)sc2c(-c2ccc(Cl)cc2)c1[C@H](OC(C)(C)C)C(=O)O [Compound 390],9
13,Cc1cc2nc(-c3ccnc(-c4ccc5c(c4)OCC(=O)N5)c3)sc2c(-c2ccc(Cl)cc2)c1[C@H](OC(C)(C)C)C(=O)O [Compound 391],11
14,Cc1cc2nc(-c3ccnc(-c4cccc5c4OCC(=O)N5)c3)sc2c(-c2ccc(Cl)cc2)c1[C@H](OC(C)(C)C)C(=O)O [Compound 392],27
15,Cc1cc2nc(-c3ccnc(-c4ccc5c(c4)N(C)C(=O)CO5)c3)sc2c(-c2ccc(Cl)cc2)c1[C@H](OC(C)(C)C)C(=O)O [Compound 393],33
16,Cc1cc2nc(-c3ccnc(-c4ccc5c(c4)NC(=O)CO5)c3)sc2c(-c2ccc(Cl)cc2)c1[C@H](OC(C)(C)C)C(=O)O [Compound 394],25
17,Cc1cc2nc(-c3cccc(-c4ccc5c(n4)N(C)CCO5)c3)sc2c(-c2ccc(Cl)cc2)c1[C@H](OC(C)(C)C)C(=O)O [Compound 395],61

row,Compound,EC50 [nM]
1,Cc1cc2nc(-c3ccnc(-c4cnc5c(c4)OCCN5C)c3)sc2c(-c2ccc(Cl)cc2)c1[C@H](OC(C)(C)C)C(=O)O [Compound 396],10
2,COc1ncc(-c2cc(-c3nc4cc(C)c([C@H](OC(C)(C)C)C(=O)O)c(-c5ccc(Cl)cc5)c4s3)ccn2)cn1 [Compound 402],35
3,CCOc1ncc(-c2cc(-c3nc4cc(C)c([C@H](OC(C)(C)C)C(=O)O)c(-c5ccc(Cl)cc5)c4s3)ccn2)cn1 [Compound 403],42
4,Cc1cc2nc(-c3ccnc(-c4ccc5c(c4)N(C)CCO5)c3)sc2c(-c2ccc(Cl)cc2)c1[C@H](OC(C)(C)C)C(=O)O [Compound 404],41
5,Cc1cc2nc(-c3ccnc(-c4cnc5c(c4)ncn5C)c3)sc2c(-c2ccc(Cl)cc2)c1[C@H](OC(C)(C)C)C(=O)O [Compound 405],37
6,Cc1cc2nc(-c3ccnc(-c4cnc5ncn(C)c5c4)c3)sc2c(-c2ccc(Cl)cc2)c1[C@H](OC(C)(C)C)C(=O)O [Compound 406],149
7,Cc1cc2nc(-c3ccnc(-c4cnn(C(C)(C)C)c4)c3)sc2c(-c2ccc(Cl)cc2)c1[C@H](OC(C)(C)C)C(=O)O [Compound 408],27
8,Cc1cc2nc(-c3ccc4c(c3)nc(C)n4C(C)C)sc2c(-c2ccc(Cl)cc2)c1[C@H](OC(C)(C)C)C(=O)O [Compound 410],9
9,Cc1cc2nc(-c3ccc4nc(C)n(C5CCOCC5)c4c3)sc2c(-c2ccc(Cl)cc2)c1[C@H](OC(C)(C)C)C(=O)O [Compound 412],16
10,Cc1cc2nc(-c3ccc4c(c3)ncn4C)sc2c(-c2ccc(Cl)cc2)c1[C@H](OC(C)(C)C)C(=O)O [Compound 415],10
11,Cc1cc2nn(C)cc2cc1-c1cc(-c2nc3cc(C)c([C@H](OC(C)(C)C)C(=O)O)c(-c4ccc(Cl)cc4)c3s2)ccn1 [Compound 416],25
12,Cc1cc2nc(-c3ccnc(-c4ccc5c(cnn5C)c4C)c3)sc2c(-c2ccc(Cl)cc2)c1[C@H](OC(C)(C)C)C(=O)O [Compound 417],18
13,Cc1cc2[nH]ncc2cc1-c1cc(-c2nc3cc(C)c([C@H](OC(C)(C)C)C(=O)O)c(-c4ccc(Cl)cc4)c3s2)ccn1 [Compound 420],14
14,Cc1cc2nc(-c3ccnc(-c4cc(C)c5[nH]ncc5c4)c3)sc2c(-c2ccc(Cl)cc2)c1[C@H](OC(C)(C)C)C(=O)O [Compound 422],32
15,Cc1cc2nc(-c3ccc4c(c3)c(-c3cnccn3)nn4C)sc2c(-c2ccc(Cl)cc2)c1[C@H](OC(C)(C)C)C(=O)O [Compound 428],7
16,Cc1cc2nc(-c3ccc4scnc4c3)sc2c(-c2ccc(Cl)cc2)c1[C@H](OC(C)(C)C)C(=O)O [Compound 429],43
17,Cc1cc2nc(-c3ccc4cnn(C)c4c3)sc2c(-c2ccc(Cl)cc2)c1[C@H](OC(C)(C)C)C(=O)O [Compound 430],29

# Continued by falling EC50, values first:
row,EC50 [nM],Compound
1,530,Cc1cc2nc(-c3cccc4c3cnn4C)sc2c(-c2ccc(Cl)cc2)c1[C@H](OC(C)(C)C)C(=O)O [Compound 387]
2,332,Cc1cc2nc(C3CC=Cc4nn(C)cc43)sc2c(-c2ccc(Cl)cc2)c1[C@H](OC(C)(C)C)C(=O)O (some centres unmarked) [Compound 384]
3,143,Cc1cnc2n(C)cc(-c3cc(-c4nc5cc(C)c([C@H](OC(C)(C)C)C(=O)O)c(-c6ccc(Cl)cc6)c5s4)ccn3)cc1-2 [Compound 385]
4,91,Cc1cc2nc(-c3ccnc(-c4cn(C)c5ncc(F)cc45)c3)sc2c(-c2ccc(Cl)cc2)c1[C@H](OC(C)(C)C)C(=O)O [Compound 382]
5,56,Cc1cc2nc(-c3ccnc(-c4cnc5c(c4)c(C)cn5C)c3)sc2c(-c2ccc(Cl)cc2)c1[C@H](OC(C)(C)C)C(=O)O [Compound 386]
6,45,Cc1cc2nc(-c3ccnc(-c4ccc5c(cnn5C(C)C)c4)c3)sc2c(-c2ccc(Cl)cc2)c1[C@H](OC(C)(C)C)C(=O)O [Compound 374]
7,43,Cc1cc2nc(-c3ccnc(-c4ccc5c(c4)N(C)CC5)c3)sc2c(-c2ccc(Cl)cc2)c1[C@H](OC(C)(C)C)C(=O)O [Compound 399]
8,36,Cc1cc2nc(-c3ccnc(-c4cccc5c4CCN5C)c3)sc2c(-c2ccc(Cl)cc2)c1[C@H](OC(C)(C)C)C(=O)O [Compound 398]
9,33,Cc1cc2nc(-c3ccc4nc(C)n(C5CCN(C)CC5)c4c3)sc2c(-c2ccc(Cl)cc2)c1[C@H](OC(C)(C)C)C(=O)O [Compound 413]
10,32,Cc1cc2nc(-c3cnc4c(c3)c(N3CCN(C)CC3)cn4C)sc2c(-c2ccc(Cl)cc2)c1[C@H](OC(C)(C)C)C(=O)O [Compound 377]
11,32,Cc1cc2nc(-c3ccnc(-c4ccc5c(c4)CCN5C)c3)sc2c(-c2ccc(Cl)cc2)c1[C@H](OC(C)(C)C)C(=O)O [Compound 397]
12,32,Cc1cc2nc(-c3ccc4ncn(C5CCN(C)CC5)c4c3)sc2c(-c2ccc(Cl)cc2)c1[C@H](OC(C)(C)C)C(=O)O [Compound 414]
13,23,Cc1cc2nc(-c3ccnc(-c4ccc5c(c4)C(=O)N(C)CCO5)c3)sc2c(-c2ccc(Cl)cc2)c1[C@H](OC(C)(C)C)C(=O)O [Compound 401]
14,20,Cc1cc2nc(-c3ccnc(-c4ccc5[nH]ncc5c4C)c3)sc2c(-c2ccc(Cl)cc2)c1[C@H](OC(C)(C)C)C(=O)O [Compound 421]
15,18,Cc1cc2nc(N3Cc4cccnc4C3)sc2c(-c2ccc(Cl)cc2)c1[C@H](OC(C)(C)C)C(=O)O [Compound 431]
16,18,Cc1cc2nc(N3Cc4ccncc4C3)sc2c(-c2ccc(Cl)cc2)c1[C@H](OC(C)(C)C)C(=O)O [Compound 432]
17,16,Cc1cc2nc(-c3ccnc(-c4ccc5c(c4)OCCN5C)c3)sc2c(-c2ccc(Cl)cc2)c1[C@H](OC(C)(C)C)C(=O)O [Compound 400]
18,14,Cc1cc2nc(-c3ccnc(-c4ccc5c(c4)nnn5C)c3)sc2c(-c2ccc(Cl)cc2)c1[C@H](OC(C)(C)C)C(=O)O [Compound 407]
19,14,Cc1cc2nc(-c3ccc4cnccc4c3)sc2c(-c2ccc(Cl)cc2)c1[C@H](OC(C)(C)C)C(=O)O [Compound 427]
20,13,Cc1cc2c(cnn2C)cc1-c1cc(-c2nc3cc(C)c([C@H](OC(C)(C)C)C(=O)O)c(-c4ccc(Cl)cc4)c3s2)ccn1 [Compound 419]
21,11,Cc1cc2nc(-c3ccnc(-c4ccc5nn(C)cc5c4C)c3)sc2c(-c2ccc(Cl)cc2)c1[C@H](OC(C)(C)C)C(=O)O [Compound 418]
22,10,Cc1cc2nc(-c3ccc4c(c3)nc(C)n4C3CC3)sc2c(-c2ccc(Cl)cc2)c1[C@H](OC(C)(C)C)C(=O)O [Compound 409]
23,8,Cc1cc2nc(-c3ccc4c(c3)nc(C(C)C)n4C)sc2c(-c2ccc(Cl)cc2)c1[C@H](OC(C)(C)C)C(=O)O [Compound 411]
24,7,Cc1cc2nc(-c3ccnc(-c4ccc5nn(C6COC6)cc5c4)c3)sc2c(-c2ccc(Cl)cc2)c1[C@H](OC(C)(C)C)C(=O)O [Compound 371]
25,7,Cc1cc2nc(-c3ccnc(-c4ccc5c(cnn5C5COC5)c4)c3)sc2c(-c2ccc(Cl)cc2)c1[C@H](OC(C)(C)C)C(=O)O [Compound 372]
